Results: patent publication US20080269053A1, “Amino Acid Compositions and Methods of Using as Fertilizer” (priority 2007, published 2008)

Tests used:
Solubility in water = format: physicochemical; conditions: 25° C., read-out: solubility in H2O
St. Augustine grass = assay: Turfgrass quality rating, St. Augustine grass fertilized monthly; format: in vivo, Stenotaphrum secundatum
From the text: St. Augustine grass was fertilized monthly at rates of between 0.5 and 3.0 lbs nitrogen/1000 square feet with lysine HCL and Liquid Lysine, which were compared with inorganic, quick release/response urea and the organic industry standard Milorganite. Urea, lysine HCl, and liquid lysine were spray/liquid applied, while Milorganite was applied as a solid granular product.
Overall turf quality was rated weekly using a visual scale of 1-9 with 9 representing perfect turf. Ratings higher than 6.0 are considered acceptable, while any rating below 6.0 is unacceptable.

Kentucky blue grass = assay: Turfgrass quality rating, Kentucky blue grass lawns; format: in vivo, Poa pratensis; conditions: 1.0 lb nitrogen per 1000 sq ft per month
Description: Kentucky blue grass is often used as a turfgrass species in the cool, temperature zone as a blend of varieties or within specialized “mixes” created for various geographical locations. In this embodiment, Kentucky blue grass was fertilized under a normal application rate of 1.0 lb nitrogen per 1000 sq ft per month in high quality, high maintenance lawns. Turfgrass quality and toxicity were measured on a 1-9 visual basis with 9 representing the highest quality turf or the most injury, respectively.

Creeping bentgrass [1] = assay: Phytotoxicity rating, creeping bentgrass fairways; format: in vivo, Agrostis
From the text: Creeping bentgrass is a major choice for fairways, golf greens and tees in the cool-temperate zone. It has the ability to withstand close mowing and is very “aggressive” which allows for quick recovery from injuries. Creeping bentgrass was fertilized in Fairways substantially the same as described in example 1 at three different rates: half, full and 3× normal rates (0.5, 1.0 and 3.0 lbs nitrogen/1000/month) applied on a monthly basis. Turfgrass quality ratings were taken every month from June through November along with “color” and “phytotoxicity” ratings. Turfgrass quality and toxicity were measured on a 1-9 visual basis with 9 representing the highest quality turf or most injury/burn to the turfgrass. Fairways toxicity ratings and turfgrass quality ratings are shown in FIGS. 10 and 11, respectively. The most crucial months with regard to fertilizer application toxicity are the mid-summer months of July and August due to hotter and more humid conditions which typically amplify any potential for fertilizer “burn” injury.

Creeping bentgrass [2] = assay: Turfgrass quality rating, creeping bentgrass greens; format: in vivo, Agrostis; conditions: creeping bentgrass greens, 0.063, 0.125 and 0.25 lbs nitrogen/1000 sq ft bi-weekly
Description: (§1) Creeping bentgrass is a major choice for fairways, golf greens and tees in the cool-temperate zone. It has the ability to withstand close mowing and is very “aggressive” allowing for quick recovery from injuries. It was fertilized in greens at half, full and […] rate of application (0.063, 0.125 and 0.25 lbs nitrogen/1000 sq ft) on a bi-weekly basis. Turfgrass quality and toxicity were measured on a 1-9 visual basis, with 9 representing the highest quality turf or the most injury respectively. Fairways toxicity ratings and turfgrass quality ratings are shown in FIGS. 12 and 13, respectively.

Bermuda grass [3] = assay: Burn after true foliar application, Bermuda grass fairways; format: in vivo, Cynodon spp.
From the text: (§2) True foliar applications were studied with Tall Fescue grass. Normal foliar rates of 0.5, 1.0 and 3.0 lb nitrogen per 1000 sq ft were used with water volumes in the range of 0.5 to 2.0 gallons per 1000 sq ft (for comparison non-foliar, normal liquid spray applications are typically more than 4.0 gallons of water per 1000 sq ft.) Results are presented in FIG. 15 for mean data taken during a 5 week period. […] However, as true application rates are ⅛ the 1× rate, burn potential for foliar applications is limited.
(§3) True foliar applications were studied with Bermuda grass in Fairways at the rates used in EXAMPLE 9. Results for mean data averaged over seven weeks for burn rate and turfgrass quality are presented in FIGS. 17 and 18, respectively. […] Lysine HCl had 3-5% burn levels depending upon the rate of application.

Bermuda grass [4] = assay: Turfgrass quality after true foliar application, Bermuda grass fairways; format: in vivo, Cynodon spp.; conditions: mean over seven weeks
From the text: as §2, §3

Creeping bentgrass [5] = assay: Turfgrass quality after true foliar application, creeping bentgrass greens and tees; format: in vivo, Agrostis; conditions: averaged over six weeks
From the text: as §2
True foliar applications were studied with creeping bentgrass on greens and tees at the rates used in Example 9.

Bermudagrass = assay: Turfgrass quality rating, Bermudagrass in golf course fairway conditions; format: in vivo, Cynodon spp.; conditions: monthly 0.5-3.0 lbs nitrogen/1000 sq ft
Description: (§4) Bermudagrass was grown and maintained in golf course fairway conditions. The bermudagrass was mown at a ½ inch height of cut and fertilized monthly between 0.5 and 3.0 lbs nitrogen per 1000 square feet. Lysine HCL and liquid lysine in aqueous solutions were compared with inorganic, quick release/response urea and the organic industry standard Milorganite. Urea, lysine HCl and liquid lysine were spray/liquid applied, while Milorganite was applied as a solid granular product.
Overall turf quality was rated weekly using a visual scale of 1-9 with 9 representing perfect turf (rarely attained, if ever). Ratings higher than 6.0 are considered acceptable while any rating below 6.0 is considered unacceptable. […] All fertilizers responded with acceptable turf ratings at all application rates, but lysine HCL trended better.
as §4, with “HCl applied as a solid granular was” for “HCL and liquid lysine in aqueous solutions were”, “Urea was” for “Urea, lysine HCl and liquid lysine were”
Lysine HCL was applied as a solid granular to compare with spray applied lysine HCL and liquid lysine. […]

Ultra-Dwarf Bermudagrass = assay: Turfgrass quality rating, Ultra-Dwarf Bermudagrass golf greens; format: in vivo, Cynodon spp.; conditions: normal 0.125 lb nitrogen/week rate
From the text: Ultra-dwarf bermudagrass is typically mown at ⅛ inch or lower and fertilized on a weekly basis which is termed “spoon feeding”. Lysine HCl, liquid lysine, Milogranite and urea were applied under substantially the same conditions as described in Example 1. Overall turf quality was rated weekly using a visual scale of 1-9 with 9 representing perfect turf. Ratings higher than 6.0 are considered acceptable while any rating below 6.0 is unacceptable.

Creeping bentgrass [6] = assay: Phytotoxicity rating, creeping bentgrass greens; format: in vivo, Agrostis; conditions: bi-weekly application
Description: as §1

| SMILES | solubility (Solubility in water) [mg/mL] | overall turfgrass quality and residual activity (St. Augustine grass; half-rate of 0.5 lb nitrogen, ratings higher than 6.0 acceptable) | overall turfgrass quality (visual scale 1-9) (St. Augustine grass; monthly 0.5-3.0 lbs nitrogen/1000 sq ft, spray applied, growing season, versus urea and Milorganite) | overall turfgrass quality rating (St. Augustine grass; standard 1.0 lb nitrogen rate, compared to urea and milorganite) | turfgrass quality (Kentucky blue grass) | phytotoxicity (injury) rating, visual 1-9 (Creeping bentgrass [1]; July) | turfgrass quality rating (Creeping bentgrass [2]) | burn level (Bermuda grass [3]; depending upon rate of application, mean over seven weeks) | burn potential (Bermuda grass [3]; turfgrasses recover quickly) | turfgrass quality rating (Bermuda grass [4]) | turfgrass quality rating (Creeping bentgrass [5]) | overall turf quality (visual scale 1-9) (Bermudagrass; applied as solid granular) | total seasonal turfgrass quality (visual scale 1-9) (Bermudagrass; aqueous spray applied) | overall turf quality performance (Ultra-Dwarf Bermudagrass) | toxicity rating, visual 1-9 (Creeping bentgrass [6]; June and July) | phytotoxicity (injury) rating, visual 1-9 (Creeping bentgrass [1]; August) | toxicity rating, visual 1-9 (Creeping bentgrass [6]; August) |
| --- | --- | --- | --- | --- | --- | --- | --- | --- | --- | --- | --- | --- | --- | --- | --- | --- | --- |
| Cl.NCCCC[C@H](N)C(=O)O [lysine HCl, lysine monohydrochloride] | 500 to 600 | acceptable overall turfgrass quality and residual activity | trended better than urea and milorganite | noticeably higher | marginally better than urea | insignificant level of injury | slightly better than the blended synthetic products and Milogranite | 3-5% | high burn potential | better than Coron and control plots | statistically equal qualities as Coron | as effective as or more effective than Milorganite and urea | seasonally better turfgrass quality at all rates tested compared to urea and milorganite | statistically the same as that of urea | Slight and insignificant levels of toxicity |  |  |
| NC(N)=O [urea, reference compound] |  |  |  |  |  |  |  |  |  |  |  |  |  |  |  | significantly more injury than liquid lysine and lysine HCl | significantly higher toxicity levels |
